Patent US12077503B2, “Substituted cyclic amides and their use as herbicides” (FMC CORPORATION, priority 2015, dated 2024)

What was measured:
Format in all cases: in vivo
[1] = test system: corn (Zea mays); assay: Test A postemergence; settings: Zea mays, post-emergence, 240 h, 125 g ai/ha, Postemergence; visual injury after approximately 10 d; 0 to 100 scale where 0 is no effect and 100 is complete control
In short: (§1)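 Preemergence soil spray on seeded pots or post-emergence spray on 1–2 leaf plants, in loam–sand blend. Greenhouse ~10 d. Visual rating 0–100 against untreated plants.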

[2] = test system: barnyardgrass (Echinochloa crus-galli); assay: Test A postemergence; settings: Echinochloa crus-galli, post-emergence, 240 h, 125 g ai/ha, Postemergence; visual injury after approximately 10 d; 0 to 100 scale where 0 is no effect and 100 is complete control; read-out: Plant response rating, Barnyardgrass
In short: as §1

[3] = test system: Galium (catchweed bedstraw, Galium aparine); assay: Test A postemergence; settings: Galium, post-emergence, 240 h, 125 g ai/ha, Postemergence; visual injury after approximately 10 d; 0 to 100 scale where 0 is no effect and 100 is complete control; read-out: Plant response rating, Galium
In short: as §1

[4] = test system: wheat (Triticum aestivum); assay: Test A postemergence; settings: Triticum aestivum, post-emergence, 240 h, 125 g ai/ha, Postemergence; visual injury after approximately 10 d; 0 to 100 scale where 0 is no effect and 100 is complete control; read-out: Plant response rating, Wheat
In short: as §1

[5] = test system: giant foxtail (Setaria faberii); assay: Test A postemergence; settings: Setaria faberi, post-emergence, 240 h, 125 g ai/ha, Postemergence; visual injury after approximately 10 d; 0 to 100 scale where 0 is no effect and 100 is complete control; read-out: Plant response rating, Foxtail, Giant
In short: as §1

[6] = test system: ryegrass, Italian (Italian ryegrass, Lolium multiflorum); assay: Test A postemergence; settings: Lolium multiflorum, post-emergence, 240 h, 125 g ai/ha, Postemergence; visual injury after approximately 10 d; 0 to 100 scale where 0 is no effect and 100 is complete control; read-out: Plant response rating, Ryegrass, Italian
In short: as §1

[7] = test system: pigweed (Amaranthus retroflexus); assay: Test A postemergence; settings: Amaranthus retroflexus, post-emergence, 240 h, 125 g ai/ha, Postemergence; visual injury after approximately 10 d; 0 to 100 scale where 0 is no effect and 100 is complete control; read-out: Plant response rating, Pigweed
In short: as §1

[8] = test system: ragweed (common ragweed, Ambrosia elatior); assay: Test A postemergence; settings: Ambrosia artemisiifolia, post-emergence, 240 h, 125 g ai/ha, Postemergence; visual injury after approximately 10 d; 0 to 100 scale where 0 is no effect and 100 is complete control; read-out: Plant response rating, Ragweed
In short: as §1

[9] = test system: blackgrass (Alopecurus myosuroides); assay: Test A postemergence; settings: Alopecurus myosuroides, post-emergence, 240 h, 125 g ai/ha, Postemergence; visual injury after approximately 10 d; 0 to 100 scale where 0 is no effect and 100 is complete control; read-out: Plant response rating, Blackgrass
In short: as §1

[10] = test system: Kochia (Kochia scoparia); assay: Test A postemergence; settings: Bassia scoparia, post-emergence, 240 h, 125 g ai/ha, Postemergence; visual injury after approximately 10 d; 0 to 100 scale where 0 is no effect and 100 is complete control; read-out: Plant response rating, Kochia
In short: as §1

[11] = test system: barnyardgrass (Echinochloa crus-galli); assay: Test A preemergence; settings: Echinochloa crus-galli, pre-emergence, 240 h
In short: as §1

[12] = test system: giant foxtail (Setaria faberii); assay: Test A preemergence; settings: Setaria faberi, pre-emergence, 240 h
In short: as §1

[13] = test system: ryegrass, Italian (Italian ryegrass, Lolium multiflorum); assay: Test A preemergence; settings: Lolium multiflorum, pre-emergence, 240 h
In short: as §1

[14] = test system: pigweed (Amaranthus retroflexus); assay: Test A preemergence; settings: Amaranthus retroflexus, pre-emergence, 240 h
[15] = test system: ragweed (common ragweed, Ambrosia elatior); assay: Test A preemergence; settings: Ambrosia artemisiifolia, pre-emergence, 240 h
In short: as §1

[16] = test system: Kochia (Kochia scoparia); assay: Test A preemergence; settings: Bassia scoparia, pre-emergence, 240 h
In short: as §1

[17] = test system: barnyardgrass (Echinochloa crus-galli); assay: Test B flooded paddy test; settings: Echinochloa crus-galli, Flood, 250 g ai/ha; scale of 0 to 100 where 0 is no effect and 100 is complete control; read-out: Barnyardgrass plant response rating
In short: (§2)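 Percent control, visually estimated after 13–15 d in the greenhouse on a 0–100 basis, compares treated pots with untreated ones; compound was put into paddy water 3 cm above the soil when plants had two leaves.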

[18] = test system: rice (Oryra sativa); assay: Test B flooded paddy test; settings: Oryza sativa, Flood, 250 g ai/ha; scale of 0 to 100 where 0 is no effect and 100 is complete control; read-out: Rice plant response rating
In short: as §2

[19] = test system: ducksalad (Heteranthera limosa); assay: Test B flooded paddy test; settings: Heteranthera limosa, Flood, 250 g ai/ha; scale of 0 to 100 where 0 is no effect and 100 is complete control; read-out: Ducksalad plant response rating
In short: as §2

[20] = test system: sedge, umbrella (small-flower umbrella sedge, Cyperus difformis); assay: Test B flooded paddy test; settings: Cyperus difformis, Flood, 250 g ai/ha; scale of 0 to 100 where 0 is no effect and 100 is complete control; read-out: Sedge, Umbrella plant response rating
In short: as §2

## CCOc1cccc([C@H]2CNC(=O)[C@@H]2C(=O)Nc2ccc(F)cc2F)c1 [Compound 951]
[1]
  Corn plant response rating (crop injury, 0 = no effect, 100 = complete kill) at 125 g/ha: 0%
[2]
  pest or weed control at 125 g/ha: 70%
[3]
  pest or weed control at 125 g/ha: 0%
[4]
  plant injury at 125 g/ha: 0%
[5]
  pest or weed control at 125 g/ha: 0%
[6]
  pest or weed control at 125 g/ha: 0%
[7]
  pest or weed control at 125 g/ha: 0%
[8]
  pest or weed control at 125 g/ha: 0%
[9]
  pest or weed control at 125 g/ha: 0%
[10]
  pest or weed control at 125 g/ha: 0%
[11]; 125 g ai/ha, Preemergence, visual injury rating after approximately 10 d, read-out: Barnyardgrass plant response rating (0 to 100 scale, 0 is no effect, 100 is complete control)
  pest or weed control at 125 g/ha: 90%
[11]; 500 g ai/ha, preemergence, visual injury rating about 10 d after treatment, 0 to 100 scale (0 no effect, 100 complete control), read-out: Barnyardgrass plant response rating
  pest or weed control at 500 g/ha: 90%
[12]; 125 g ai/ha, Preemergence, visual injury rating after approximately 10 d, read-out: Foxtail, Giant plant response rating (0 to 100 scale, 0 is no effect, 100 is complete control)
  pest or weed control at 125 g/ha: 70%
[12]; 500 g ai/ha, preemergence, visual injury rating about 10 d after treatment, 0 to 100 scale (0 no effect, 100 complete control), read-out: Foxtail, Giant plant response rating
  pest or weed control at 500 g/ha: 70%
[13]; 125 g ai/ha, Preemergence, visual injury rating after approximately 10 d, read-out: Ryegrass, Italian plant response rating (0 to 100 scale, 0 is no effect, 100 is complete control)
  pest or weed control at 125 g/ha: 0%
[13]; 500 g ai/ha, preemergence, visual injury rating about 10 d after treatment, 0 to 100 scale (0 no effect, 100 complete control), read-out: Ryegrass, Italian plant response rating
  pest or weed control at 500 g/ha: 0%
[14]; 125 g ai/ha, Preemergence, visual injury rating after approximately 10 d, read-out: Pigweed plant response rating (0 to 100 scale, 0 is no effect, 100 is complete control)
  pest or weed control at 125 g/ha: 0%
[14]; 500 g ai/ha, preemergence, visual injury rating about 10 d after treatment, 0 to 100 scale (0 no effect, 100 complete control), read-out: Pigweed plant response rating
  pest or weed control at 500 g/ha: 0%
[15]; 125 g ai/ha, Preemergence, visual injury rating after approximately 10 d, read-out: Ragweed plant response rating (0 to 100 scale, 0 is no effect, 100 is complete control)
  pest or weed control at 125 g/ha: 0%
[15]; 500 g ai/ha, preemergence, visual injury rating about 10 d after treatment, 0 to 100 scale (0 no effect, 100 complete control), read-out: Ragweed plant response rating
  pest or weed control at 500 g/ha: 0%
[16]; 125 g ai/ha, Preemergence, visual injury rating after approximately 10 d, read-out: Kochia plant response rating (0 to 100 scale, 0 is no effect, 100 is complete control)
  pest or weed control at 125 g/ha: 0%
[16]; 500 g ai/ha, preemergence, visual injury rating about 10 d after treatment, 0 to 100 scale (0 no effect, 100 complete control), read-out: Kochia plant response rating
  pest or weed control at 500 g/ha: 20%
[17]
  pest or weed control at 250 g/ha: 30%
[18]
  pest or weed control at 250 g/ha: 0%
[19]
  pest or weed control at 250 g/ha: 90%
[20]
  pest or weed control at 250 g/ha: 0%
